Molecular target: T1, Bacillus lentus alkaline protease F49 (Lederbergia lenta, UniProt P29599, A188P/L211D/S3T/V193M/V199I)
T1 sequence (P29599 with tags, fused parts or gaps A188P/V193M/V199I/L211D limits assumed): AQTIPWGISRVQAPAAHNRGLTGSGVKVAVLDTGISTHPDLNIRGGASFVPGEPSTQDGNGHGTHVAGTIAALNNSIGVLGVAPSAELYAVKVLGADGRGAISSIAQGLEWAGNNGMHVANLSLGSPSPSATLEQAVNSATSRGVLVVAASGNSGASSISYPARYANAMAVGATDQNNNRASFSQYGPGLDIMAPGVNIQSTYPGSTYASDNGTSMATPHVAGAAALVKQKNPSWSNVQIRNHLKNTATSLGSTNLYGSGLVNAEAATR
Experiment: Residual protease activity in the presence of an inhibitor (AAPFpNA substrate)
Assay type: biochemical
Settings: compound 10 mM final concentration; incubation 5 min at pH 8.6 and 25° C.; batch without compound set at 100%
Experimental: In parallel reaction batches, the succinyl-alanine-alanine-proline-phenylalanine-para-nitroanilide substrate (AAPFpNA; Bachem L-1400) and 5×10^−9 or 1×10^−8 M of the protease were prepared in 100 mM BrijTM35 Tris buffer, […], 0.1% (w/v). The compounds to be tested (listed below) were added at a final concentration of 10 mM. They were each dissolved in anhydrous DMSO, the effects of DMSO on enzymatic activity having been corrected via the corresponding reference having the same quantity of DMSO but without the relevant compound. Incubation occurred for 5 min at pH 8.6 and 25° C. The corresponding reaction mixture with protease, but without the relevant compound, served as a comparison. The protease activity in these comparison batches was set at 100%.

Row | Structure (SMILES) | residual protease activity
1 | CCCCOP(=O)(O)OCCCC [V1, dibutyl phosphate] | 45%
2 | O=P(O)(OCc1ccccc1)OCc1ccccc1 [V2, dibenzyl phosphate] | 56%
